Assay results reported in article PMC12441861, “Next-Generation Lipid Prodrugs Orally Deliver Tenofovir via Enhanced Chylomicron Incorporation” (ACS Pharmacology & Translational Science, 2025).

Tests used:
[1] = Metabolic stability in mouse liver microsomes; assay type: in vitro ADME; conditions: pH 7.4, read-out: Metabolic Stability MLM t1/2
Caco-2 cell-derived CMs = assay type: in vitro ADME, human; conditions: for increase in CM concentration compared to TXL / CM concentration relative to ω-unmodified BOG prodrug (21a vs 8a, 21b vs 8b): 20 h
Protocol: [formula] 1 Chylomicron (CM) Isolation and Drug Quantification Methods ^a a (1) Caco-2 cells were grown to confluence. (2) Lipid mix was added to media (final drug concentration of 10 μM), and cells were incubated for 4 h. (3) Cells were washed 3× with PBS. (4) Cells were incubated in fresh media overnight. (5) CM-containing media was collected. (6) Media was combined with a 1.20 g/mL NaCl solution in an ultracentrifugation tube, 500 μL H2O was carefully layered on top, and the mixture was centrifuged at 10,950 RCF for 3 h. (7) The CM-containing upper layer was carefully isolated with a fine-tip pipette. (8) Test drug was then extracted from the CM layer with 70% ACN and quantified using LC-MS/MS.
With the presence of CMs in isolated Caco-2 cell extracts confirmed and reproducibility validated across replicates and different drugs, we were eager to investigate drug incorporation during CM biogenesis in vitro. Accordingly, we added test compound (Figure ) to differentiated Caco-2 cells along with the lipid mix to a final test drug concentration of 10 μM. While 10 μM was selected as a standard concentration for these studies, higher concentrations could allow detection of other compounds with low CM association in future experiments. In either case, CMs secreted by Caco-2 cells can be isolated postincubation, and drug concentrations within CMs can be assessed using highly sensitive LC-MS/MS methodology. Positive (high c Log D) and negative (low c Log D) control compounds were selected to validate this assay. […] Given these properties, we expected CAB to readily package into CMs in vitro. […]. […] This sets the stage for quantitative comparisons of TXL and its functionalized analogs, which are detailed below.
At 14-days postconfluence, Caco-2 cells were incubated in a lipid mixture to induce secretion of CMs. For the lipid solution, oleic acid (50 mg), lecithin (40 mg), and sodium taurocholate (48 mg) were weighted out into an Eppendorf tube, and the volume was brought up to 900 μL with PBS, followed by vigorous vortexing to ensure sample homogeneity. This 100× lipid mixture was then diluted into growth media to achieve the desired concentrations (2 mM oleic acid, 1.36 mM lecithin, 1 mM sodium taurocholate) by adding 500 μL of the lipid mixture to 49.5 mL of media. The lipid-supplemented media was thoroughly mixed and sterilized by filtration using a 250 mL sterile vacuum filter. For the drug-exposed CM experiments, each test compound was dissolved in 2 mM human serum albumin (HAS, Sigma, essentially fatty acid free) in DPBS, then added to 10 mL aliquots of lipid-containing media to achieve a final concentration of 10 μM. Subsequently, lipid-containing media was added to Caco-2 cells and incubated for 4 h at 37 °C. After incubation, cells were washed twice with PBS then incubated for 4, 8, or 20 h at 37 °C in fresh, colorless growth medium. Media was collected into 15 mL falcon tubes and centrifuged at 2000g to remove cell debris. Postcentrifugation, the supernatant was transferred to 50 mL Nalgene Oak Ridge High-Speed PPCO Centrifuge Tubes. Next, to adjust the density for ultracentrifugation, 1.19 g of NaCl in 2 mL of deionized (DI) H2O were added to reach a final volume of 5 mL, corresponding to a density of 1.20 g/mL. This mixture was dissolved by vortexing and balanced by weight. 500 μL of DI H2O was carefully overlaid onto the mixture. Ultracentrifugation was performed for 2 h and 30 min at 10,920 relative centrifugal force (RCF). Immediately after centrifugation, the top 500 μL layer, containing CMs, was carefully collected using a gel-loading pipet tip.
To an aliquot of CM extract was added an equal volume of ACN into 1.5 mL Eppendorf tubes. Tubes were shaken for 1 h at rt then centrifuged at 15,000 RCF to remove debris. The clear supernatant was transferred to a glass vial and concentrated under reduced pressure to yield a dry solid. Sample was then reconstituted in 70% ACN in H2O, filtered and then analyzed. […]

C[C@H](Cn1cnc2c(N)ncnc21)OCP(=O)(O)OCCCOCCCCCCCCCCCCCCCC(F)(F)F [15a, Ammonium[(1R)-2-(6-aminopurin-9-yl)-1-methyl-ethoxy]methyl-[3-(16,16,16-trifluorohexadecoxy)propoxy]phosphinate]
half-life at 3 µM [1]: > 2 h
increase in CM concentration compared to TXL (Caco-2 cell-derived CMs; 10 μM): 2.4 fold

C[C@H](Cn1cnc2c(N)ncnc21)OCP(=O)(O)OC[C@H](COCCCCCCCCCCCCCCCC(F)(F)F)OCc1ccccc1 [21a, Ammonium[(1R)-2-(6-Aminopurin-9-yl)-1-methyl-ethoxy]methyl-[(2S)-2-benzyloxy-3-(16,16,16-trifluorohexadecoxy)propoxy]phosphinate]
half-life at 3 µM [1]: > 2 h
CM concentration relative to ω-unmodified BOG prodrug (21a vs 8a, 21b vs 8b) (Caco-2 cell-derived CMs; 10 μM): approximately 1.8 fold
increase in CM concentration compared to TXL (Caco-2 cell-derived CMs; 10 μM): 3.3 fold

C[C@H](Cn1cnc2c(N)ncnc21)OCP(=O)(O)OC[C@H](COCCCCCCCCCCCCCCCCCC(F)(F)F)OCc1ccccc1 [21b, Ammonium[(1R)-2-(6-aminopurin-9-yl)-1-methyl-ethoxy]methyl-[(2S)-2-benzyloxy-3-(18,18,18-trifluorooctadecoxy)propoxy]phosphinate]
half-life at 3 µM [1]: > 2 h
CM concentration relative to ω-unmodified BOG prodrug (21a vs 8a, 21b vs 8b) (Caco-2 cell-derived CMs; 10 μM): ~1.6 fold
increase in CM concentration compared to TXL (Caco-2 cell-derived CMs; 10 μM): 3.8 fold

CCCCCCCCCCCCCCCCOCCCOP(=O)(O)CO[C@H](C)Cn1cnc2c(N)ncnc21 [TXL, hexadecyloxypropyl (HDP)-TFV, reference compound]
half-life at 3 µM [1]: > 2 h
detection of compound in CM extract by LC-MS/MS (Caco-2 cell-derived CMs; 10 μM test drug, Caco-2 cells): successfully detected in CM isolates
concentration in CMs compared with BOG prodrugs (Caco-2 cell-derived CMs; 8 h, 10 μM): significantly greater concentrations in CMs than all BOG substituted prodrugs
